Laboratory results as given in patent publication US4427587A, “Total synthesis of antitumor antibiotics BBM-2040A and BBM-2040B” (Bristol-Myers Company, priority 1982, dated 1984).
Converted amounts (≈) assume the structure as drawn.

Experiments:
lymphatic leukemia P388 = assay: antitumor activity against P388 leukemia in mice, second experiment (Table 7); type: in vivo, male BDF1 mice; conditions: QD 1→9; for Effect MST % T/C: ≥ 125 significant; for antitumor activity in second P388 experiment (in words): i.p., epimer: 1 mg/kg/day, the highest dose tested
Protocol: In this experiment lymphatic leukemia P388 was implanted intraperitoneally into male BDF1 mice at an inoculum size of 10^6 cells per mouse. Test compounds were dissolved in 0.9% saline containing 10% dimethylsulfoxide. Graded doses of test compounds were administered to mice intraperitoneally 24 hours after the tumor implantation, and the treatment was continued once daily for 9 days.
Tumor inoculum: 10^6 ascites cells implanted i.p.
Treatment: QD 1→9, i.p.
Evaluation: MST = median survival time
Effect: % T/C = (MST treated/MST control) × 100
Criteria: % T/C ≥ 125 considered as significant antitumor activity

[1] = tested on: Bacillus subtilis PCI 219; assay: MIC, serial two-fold agar dilution method; type: cell-based; conditions: PCI219; Bacillus subtilis PCI 219; read-out: MIC
Protocol: (§1) The minimum inhibitory concentration (MIC) of BBM-2040 was determined for a variety of gram-positive, gram-negative and acid-fast bacteria by the serial two-fold agar dilution method. Nutrient agar medium was used for gram-positive and gram-negative organisms and No. 1001 medium (3% glycerol, 0.3% sodium L-glutamate, 0.2% peptone, 0.31% Na2 HPO4, 0.1% KH2 PO4, 0.005% ammonium citrate, 0.001% MgSO4 and 1.5% agar) for acid-fast organisms.

Escherichia coli Juhl = assay: MIC, serial two-fold agar dilution method; type: cell-based; conditions: Escherichia coli Juhl; read-out: MIC
Protocol: as §1

Escherichia coli NIHJ = assay: MIC, serial two-fold agar dilution method; type: cell-based; conditions: Escherichia coli NIHJ; read-out: MIC
Protocol: as §1

[2] = tested on: Klebsiella pneumoniae D-11; assay: MIC, serial two-fold agar dilution method; type: cell-based; conditions: D11; Klebsiella pneumoniae D-11; read-out: MIC
Protocol: as §1

Micrococcus flavus D12 = assay: MIC, serial two-fold agar dilution method; type: cell-based; conditions: read-out: MIC
Protocol: as §1

Mycobacterium phlei D88 = assay: MIC, serial two-fold agar dilution method; type: cell-based; conditions: Mycolicibacterium phlei; Mycobacterium phlei D88; No. 1001 medium; read-out: MIC
Protocol: as §1

[3] = tested on: Mycobacterium smegmatis 607; assay: MIC, serial two-fold agar dilution method; type: cell-based; conditions: Mycolicibacterium smegmatis; Mycobacterium smegmatis 607; No. 1001 medium; read-out: MIC
Protocol: as §1

Proteus vulgaris A9436 = assay: MIC, serial two-fold agar dilution method; type: cell-based; conditions: read-out: MIC
Protocol: as §1

[4] = tested on: Pseudomonas aeruginosa A9930; assay: MIC, serial two-fold agar dilution method; type: cell-based; conditions: read-out: MIC
Protocol: as §1

[5] = tested on: Staphylococcus aureus FDA 209P; assay: MIC, serial two-fold agar dilution method; type: cell-based; conditions: FDA209P; Staphylococcus aureus FDA 209P; read-out: MIC
Protocol: as §1

[6] = tested on: Staphylococcus aureus Smith; assay: MIC, serial two-fold agar dilution method; type: cell-based; conditions: Staphylococcus aureus Smith; read-out: MIC
Protocol: as §1

[7] = tested on: Streptococcus pyogenes A20201; assay: MIC, serial two-fold agar dilution method; type: cell-based; conditions: read-out: MIC
Protocol: as §1

[8] = tested on: Streptococcus pyogenes PCI 1001; assay: MIC, serial two-fold agar dilution method; type: cell-based; conditions: PCI1001; Streptococcus pyogenes PCI 1001; read-out: MIC
Protocol: as §1

[9] = tested on: gram-positive, gram-negative and acid-fast bacteria; assay: antibacterial activity / spectrum; type: cell-based; conditions: Streptococcus pyogenes, Micrococcus luteus, Micrococcus flavus and Mycobacterium strains
Protocol: as §1

[10] = tested on: lymphocytic leukemia P388; assay: antitumor activity against lymphocytic leukemia P388 in mice (Table 6); type: in vivo, mice (BDF1 strain); conditions: qd 1→9
Protocol: The antitumor activity of BBM-2040A and B was determined in mice (BDF1 strain) against lymphocytic leukemia P388. Each mouse was inoculated intraperitoneally with 10^6 cells of tumor. Graded doses of test compounds were administered to mice intraperitoneally 24 hours after the tumor implantation. The treatments were given once daily for 9 days (qd 1→9 schedule). Neothramycin was comparatively tested as a reference compound.
*ratio of median survival time of test and control animals
**circle indicates significant antitumor effect.

COc1cc2c(cc1O)N[C@H](OC)[C@@H]1C[C@@H](O)CN1C2=O [2β-Hydroxy epimer of BBM-2040 A]
Average weight change (lymphatic leukemia P388; 0.03 mg/kg/day i.p.): +1.0 g
MST (lymphatic leukemia P388; 0.03 mg/kg/day i.p.): 10.5 days
Survivors Day 5 (lymphatic leukemia P388; 0.03 mg/kg/day i.p.): 6/6
Survivors Day 22 (lymphatic leukemia P388; 0.03 mg/kg/day i.p.): 0/6
Effect MST % T/C (lymphatic leukemia P388; 0.03 mg/kg/day i.p.): 88%
Average weight change (lymphatic leukemia P388; 0.1 mg/kg/day i.p.): +1.3 g
MST (lymphatic leukemia P388; 0.1 mg/kg/day i.p.): 11.0 days
Survivors Day 5 (lymphatic leukemia P388; 0.1 mg/kg/day i.p.): 6/6
Survivors Day 22 (lymphatic leukemia P388; 0.1 mg/kg/day i.p.): 0/6
Effect MST % T/C (lymphatic leukemia P388; 0.1 mg/kg/day i.p.): 92%
Average weight change (lymphatic leukemia P388; 0.3 mg/kg/day i.p.): +1.8 g
MST (lymphatic leukemia P388; 0.3 mg/kg/day i.p.): 11.0 days
Survivors Day 5 (lymphatic leukemia P388; 0.3 mg/kg/day i.p.): 6/6
Survivors Day 22 (lymphatic leukemia P388; 0.3 mg/kg/day i.p.): 0/6
Effect MST % T/C (lymphatic leukemia P388; 0.3 mg/kg/day i.p.): 92%
Average weight change (lymphatic leukemia P388; 1 mg/kg/day i.p.): +1.0 g
MST (lymphatic leukemia P388; 1 mg/kg/day i.p.): 12.0 days
Survivors Day 5 (lymphatic leukemia P388; 1 mg/kg/day i.p.): 6/6
Survivors Day 22 (lymphatic leukemia P388; 1 mg/kg/day i.p.): 0/6
Effect MST % T/C (lymphatic leukemia P388; 1 mg/kg/day i.p.): 100%
antitumor activity in second P388 experiment (in words) (lymphatic leukemia P388): inactive

COc1cc2c(cc1O)N[C@H](OC)[C@@H]1C[C@H](O)CN1C2=O [BBM-2040A, 2(S),11(R),11a(S)-1,2,3,10,11,11a-Hexahydro-2,8-dihydroxy-7,11-dimethoxy-5H-pyrrolo-[2,1-c][1,4]benzodiazepin-5-one]
MIC [1]: > 100 µg/mL
MIC (Escherichia coli Juhl): > 100 µg/mL
MIC (Escherichia coli NIHJ): > 100 µg/mL
MIC [2]: > 100 µg/mL
MIC (Micrococcus flavus D12): 50 µg/mL (≈ 170 µM)
MIC (Mycobacterium phlei D88): 100 µg/mL (≈ 340 µM)
MIC [3]: 100 µg/mL (≈ 340 µM)
MIC (Proteus vulgaris A9436): > 100 µg/mL
MIC [4]: > 100 µg/mL
MIC [5]: > 100 µg/mL
MIC [6]: > 100 µg/mL
MIC [7]: 50 µg/mL (≈ 170 µM)
MIC [8]: 50 µg/mL (≈ 170 µM)
antibacterial activity [9]: weak antibacterial activity
T/C (%) in MST ([10]; 0.1 mg/kg/day ip): 96%
T/C (%) in MST ([10]; 0.3 mg/kg/day ip): 104%
antitumor activity in P388 experiment (comparison) ([10]; ip): similarly active
Average weight change (lymphatic leukemia P388; 0.1 mg/kg/day i.p.): +1.5 g
MST (lymphatic leukemia P388; 0.1 mg/kg/day i.p.): 12.0 days
Effect MST % T/C (lymphatic leukemia P388; 0.1 mg/kg/day i.p.): 100%
Average weight change (lymphatic leukemia P388; 0.3 mg/kg/day i.p.): +1.3 g
MST (lymphatic leukemia P388; 0.3 mg/kg/day i.p.): 14.0 days
Effect MST % T/C (lymphatic leukemia P388; 0.3 mg/kg/day i.p.): 117%
MST (lymphatic leukemia P388; 1 mg/kg/day i.p.): 16.0 days
Effect MST % T/C (lymphatic leukemia P388; 1 mg/kg/day i.p.): 133%
Average weight change (lymphatic leukemia P388; 3 mg/kg/day i.p.): +0.5 g
MST (lymphatic leukemia P388; 3 mg/kg/day i.p.): 17.0 days
Survivors Day 5 (lymphatic leukemia P388; 3 mg/kg/day i.p.): 6/6
Survivors Day 22 (lymphatic leukemia P388; 3 mg/kg/day i.p.): 0/6
Effect MST % T/C (lymphatic leukemia P388; 3 mg/kg/day i.p.): 142%
Average weight change (lymphatic leukemia P388; 10 mg/kg/day i.p.): -2.2 g
MST (lymphatic leukemia P388; 10 mg/kg/day i.p.): 19.5 days
Survivors Day 5 (lymphatic leukemia P388; 10 mg/kg/day i.p.): 6/6
Survivors Day 22 (lymphatic leukemia P388; 10 mg/kg/day i.p.): 1/6
Effect MST % T/C (lymphatic leukemia P388; 10 mg/kg/day i.p.): 163%
antitumor activity in second P388 experiment (in words) (lymphatic leukemia P388): similarly active
solubility (solubility; benzene, chloroform and n-hexane): practically insoluble
solubility (solubility; ethyl acetate, acetone and water): slightly soluble
solubility (solubility; methanol ethanol, n-butanol and pyridine): readily soluble
